Test results reported in PubChem BioAssay (NCI).
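Step 1: Grow cells in 96-well plates. Step 2: Expose to compound for 48 hours at 5 concentrations. Step 3: Interpolate endpoints linearly; if unreached, use highest concentration. GI50 marks 50% less growth. At the TGI there is no net growth.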

Key:
Assay in all cases: inhibition of tumour cell growth, NCI panel, 48 h; in the data active = GI50 below about 0.43 µM; inactive = the rest
786-0 renal = test system: 786-0 renal
A549 NSCLC = test system: A549 NSCLC
CAKI-1 renal = test system: CAKI-1 renal
CCRF-CEM leukemia = test system: CCRF-CEM leukemia
COLO 205 colon = test system: COLO 205 colon
DLD-1 colon = test system: DLD-1 colon
DMS 114 small cell lung = test system: DMS 114 small cell lung
DMS 273 small cell lung = test system: DMS 273 small cell lung
EKVX NSCLC = test system: EKVX NSCLC
HCC-2998 colon = test system: HCC-2998 colon
HCT-15 colon = test system: HCT-15 colon
HL-60(TB) leukemia = test system: HL-60(TB) leukemia
HOP-62 NSCLC = test system: HOP-62 NSCLC
HT29 colon = test system: HT29 colon
IGROV1 ovarian = test system: IGROV1 ovarian
K-562 leukemia = test system: K-562 leukemia
KM12 colon = test system: KM12 colon
LOX IMVI melanoma = test system: LOX IMVI melanoma
LXFL 529 NSCLC = test system: LXFL 529 NSCLC
M14 melanoma = test system: M14 melanoma
M19-MEL melanoma = test system: M19-MEL melanoma
MALME-3M melanoma = test system: MALME-3M melanoma
MOLT-4 leukemia = test system: MOLT-4 leukemia
NCI-H226 lung = test system: NCI-H226 lung
NCI-H23 lung = test system: NCI-H23 lung
NCI-H522 lung = test system: NCI-H522 lung
OVCAR-3 ovarian = test system: OVCAR-3 ovarian
OVCAR-8 ovarian = test system: OVCAR-8 ovarian
RPMI-8226 leukemia = test system: RPMI-8226 leukemia
RXF 393 renal = test system: RXF 393 renal
RXF-631 renal = test system: RXF-631 renal
SF-268 CNS = test system: SF-268 CNS
SF-295 CNS = test system: SF-295 CNS
SF-539 CNS = test system: SF-539 CNS
SK-MEL-2 melanoma = test system: SK-MEL-2 melanoma
SK-MEL-28 melanoma = test system: SK-MEL-28 melanoma
SK-MEL-5 melanoma = test system: SK-MEL-5 melanoma
SK-OV-3 ovarian = test system: SK-OV-3 ovarian
SN12C renal = test system: SN12C renal
SNB-19 CNS = test system: SNB-19 CNS
SNB-75 CNS = test system: SNB-75 CNS
SNB-78 CNS = test system: SNB-78 CNS
SW-620 colon = test system: SW-620 colon
TK-10 renal = test system: TK-10 renal
UACC-257 melanoma = test system: UACC-257 melanoma
UACC-62 melanoma = test system: UACC-62 melanoma
UO-31 renal = test system: UO-31 renal
XF 498 CNS = test system: XF 498 CNS
A498 renal = test system: A498 renal
ACHN renal = test system: ACHN renal
HCT-116 colon = test system: HCT-116 colon
HOP-18 NSCLC = test system: HOP-18 NSCLC
HOP-92 NSCLC = test system: HOP-92 NSCLC
KM20L2 colon = test system: KM20L2 colon
NCI-H460 lung = test system: NCI-H460 lung
OVCAR-4 ovarian = test system: OVCAR-4 ovarian
OVCAR-5 ovarian = test system: OVCAR-5 ovarian
U251 CNS = test system: U251 CNS
SR leukemia = test system: SR leukemia

O=C1[C@@H](c2ccc(Cl)cc2)[C@H]2CC=C[C@H]2N1O
> 100 µM: TGI (786-0 renal) | TGI (A549 NSCLC) | TGI (CAKI-1 renal) | TGI (CCRF-CEM leukemia) | TGI (COLO 205 colon) | TGI (DLD-1 colon) | TGI (DMS 114 small cell lung) | TGI (DMS 273 small cell lung) | TGI (EKVX NSCLC) | TGI (HCC-2998 colon) | TGI (HCT-15 colon) | TGI (HL-60(TB) leukemia) | TGI (HOP-62 NSCLC) | TGI (HT29 colon) | TGI (IGROV1 ovarian) | TGI (K-562 leukemia) | TGI (KM12 colon) | TGI (LOX IMVI melanoma) | TGI (LXFL 529 NSCLC) | TGI (M14 melanoma) | TGI (M19-MEL melanoma) | TGI (MALME-3M melanoma) | TGI (MOLT-4 leukemia) | TGI (NCI-H226 lung) | TGI (NCI-H23 lung) | TGI (NCI-H522 lung) | TGI (OVCAR-3 ovarian) | TGI (OVCAR-8 ovarian) | TGI (RPMI-8226 leukemia) | TGI (RXF 393 renal) | TGI (RXF-631 renal) | TGI (SF-268 CNS) | TGI (SF-295 CNS) | TGI (SF-539 CNS) | TGI (SK-MEL-2 melanoma) | TGI (SK-MEL-28 melanoma) | TGI (SK-MEL-5 melanoma) | TGI (SK-OV-3 ovarian) | TGI (SN12C renal) | TGI (SNB-19 CNS) | TGI (SNB-75 CNS) | TGI (SNB-78 CNS) | TGI (SW-620 colon) | TGI (TK-10 renal) | TGI (UACC-257 melanoma) | TGI (UACC-62 melanoma) | TGI (UO-31 renal) | TGI (XF 498 CNS)

CC(C)N(C(C)C)[PH+]1O[PH+](N(C(C)C)C(C)C)O[PH+](N(C(C)C)C(C)C)O[PH+](N(C(C)C)C(C)C)O[PH+](N(C(C)C)C(C)C)O1.[C-]#[O+].[C-]#[O+].[C-]#[O+].[C-]#[O+].[C-]#[O+].[C-]#[O+].[C-]#[O+].[Cr].[Cr] (configuration not stated)
> 100 µM: TGI (786-0 renal) | TGI (A498 renal) | TGI (A549 NSCLC) | TGI (ACHN renal) | TGI (CAKI-1 renal) | TGI (CCRF-CEM leukemia) | TGI (COLO 205 colon) | TGI (DLD-1 colon) | TGI (DMS 114 small cell lung) | TGI (DMS 273 small cell lung) | TGI (EKVX NSCLC) | TGI (HCC-2998 colon) | TGI (HCT-116 colon) | TGI (HCT-15 colon) | TGI (HL-60(TB) leukemia) | TGI (HOP-18 NSCLC) | TGI (HOP-62 NSCLC) | TGI (HOP-92 NSCLC) | TGI (HT29 colon) | TGI (IGROV1 ovarian) | TGI (K-562 leukemia) | TGI (KM12 colon) | TGI (KM20L2 colon) | TGI (LOX IMVI melanoma) | TGI (LXFL 529 NSCLC) | TGI (M14 melanoma) | TGI (M19-MEL melanoma) | TGI (MALME-3M melanoma) | TGI (MOLT-4 leukemia) | TGI (NCI-H226 lung) | TGI (NCI-H23 lung) | TGI (NCI-H460 lung) | TGI (NCI-H522 lung) | TGI (OVCAR-3 ovarian) | TGI (OVCAR-4 ovarian) | TGI (OVCAR-5 ovarian) | TGI (OVCAR-8 ovarian) | TGI (RPMI-8226 leukemia) | TGI (RXF 393 renal) | TGI (SF-268 CNS) | TGI (SF-295 CNS) | TGI (SF-539 CNS) | TGI (SK-MEL-2 melanoma) | TGI (SK-MEL-28 melanoma) | TGI (SK-MEL-5 melanoma) | TGI (SK-OV-3 ovarian) | TGI (SN12C renal) | TGI (SNB-19 CNS) | TGI (SNB-75 CNS) | TGI (SNB-78 CNS) | TGI (SW-620 colon) | TGI (TK-10 renal) | TGI (U251 CNS) | TGI (UACC-257 melanoma) | TGI (UACC-62 melanoma) | TGI (UO-31 renal) | TGI (XF 498 CNS)
inactive: GI50 (786-0 renal) > 100 µM | GI50 (A498 renal) > 100 µM | GI50 (A549 NSCLC) > 100 µM | GI50 (ACHN renal) > 100 µM | GI50 (CAKI-1 renal) > 100 µM | GI50 (CCRF-CEM leukemia) > 100 µM | GI50 (COLO 205 colon) > 100 µM | GI50 (DLD-1 colon) > 100 µM | GI50 (DMS 114 small cell lung) > 100 µM | GI50 (DMS 273 small cell lung) > 100 µM | GI50 (EKVX NSCLC) > 100 µM | GI50 (HCC-2998 colon) > 100 µM | GI50 (HCT-116 colon) > 100 µM | GI50 (HCT-15 colon) > 100 µM | GI50 (HL-60(TB) leukemia) > 100 µM | GI50 (HOP-18 NSCLC) > 100 µM | GI50 (HOP-62 NSCLC) > 100 µM | GI50 (HOP-92 NSCLC) > 100 µM | GI50 (HT29 colon) > 100 µM | GI50 (IGROV1 ovarian) > 100 µM | GI50 (K-562 leukemia) > 100 µM | GI50 (KM12 colon) > 100 µM | GI50 (KM20L2 colon) > 100 µM | GI50 (LOX IMVI melanoma) > 100 µM | GI50 (LXFL 529 NSCLC) > 100 µM | GI50 (M14 melanoma) > 100 µM | GI50 (M19-MEL melanoma) > 100 µM | GI50 (MALME-3M melanoma) > 100 µM | GI50 (MOLT-4 leukemia) > 100 µM | GI50 (NCI-H226 lung) > 100 µM | GI50 (NCI-H23 lung) > 100 µM | GI50 (NCI-H460 lung) > 100 µM | GI50 (NCI-H522 lung) > 100 µM | GI50 (OVCAR-3 ovarian) > 100 µM | GI50 (OVCAR-4 ovarian) > 100 µM | GI50 (OVCAR-5 ovarian) > 100 µM | GI50 (OVCAR-8 ovarian) > 100 µM | GI50 (RPMI-8226 leukemia) > 100 µM | GI50 (RXF 393 renal) > 100 µM | GI50 (SF-268 CNS) > 100 µM | GI50 (SF-295 CNS) > 100 µM | GI50 (SF-539 CNS) > 100 µM | GI50 (SK-MEL-2 melanoma) > 100 µM | GI50 (SK-MEL-28 melanoma) > 100 µM | GI50 (SK-MEL-5 melanoma) > 100 µM | GI50 (SK-OV-3 ovarian) > 100 µM | GI50 (SN12C renal) > 100 µM | GI50 (SNB-19 CNS) > 100 µM | GI50 (SNB-75 CNS) 75.4 µM | GI50 (SNB-78 CNS) > 100 µM | GI50 (SW-620 colon) > 100 µM | GI50 (TK-10 renal) > 100 µM | GI50 (U251 CNS) > 100 µM | GI50 (UACC-257 melanoma) > 100 µM | GI50 (UACC-62 melanoma) > 100 µM | GI50 (UO-31 renal) > 100 µM | GI50 (XF 498 CNS) > 100 µM

COc1ccc(OC)c(NC(=O)C(=O)C(C(=O)c2ccccc2F)C2OC(=O)c3ccccc32)c1 (configuration not stated)
70.7 µM: TGI (RXF 393 renal)
71.5 µM: TGI (NCI-H522 lung)
89.1 µM: TGI (SR leukemia)
54.5 µM: TGI (NCI-H226 lung)
49.5 µM: TGI (U251 CNS)
> 100 µM: TGI (A498 renal) | TGI (A549 NSCLC) | TGI (ACHN renal) | TGI (CAKI-1 renal) | TGI (COLO 205 colon) | TGI (DLD-1 colon) | TGI (DMS 114 small cell lung) | TGI (DMS 273 small cell lung) | TGI (EKVX NSCLC) | TGI (HCC-2998 colon) | TGI (HCT-116 colon) | TGI (HCT-15 colon) | TGI (HL-60(TB) leukemia) | TGI (HOP-62 NSCLC) | TGI (HOP-92 NSCLC) | TGI (HT29 colon) | TGI (IGROV1 ovarian) | TGI (K-562 leukemia) | TGI (KM12 colon) | TGI (KM20L2 colon) | TGI (LOX IMVI melanoma) | TGI (LXFL 529 NSCLC) | TGI (M14 melanoma) | TGI (M19-MEL melanoma) | TGI (MOLT-4 leukemia) | TGI (NCI-H23 lung) | TGI (NCI-H460 lung) | TGI (OVCAR-4 ovarian) | TGI (OVCAR-5 ovarian) | TGI (OVCAR-8 ovarian) | TGI (RPMI-8226 leukemia) | TGI (RXF-631 renal) | TGI (SF-268 CNS) | TGI (SF-295 CNS) | TGI (SK-MEL-2 melanoma) | TGI (SK-MEL-28 melanoma) | TGI (SK-MEL-5 melanoma) | TGI (SK-OV-3 ovarian) | TGI (SN12C renal) | TGI (SNB-19 CNS) | TGI (SNB-75 CNS) | TGI (SNB-78 CNS) | TGI (SW-620 colon) | TGI (TK-10 renal) | TGI (UACC-257 melanoma) | TGI (UACC-62 melanoma) | TGI (UO-31 renal) | TGI (XF 498 CNS)
82.2 µM: TGI (SF-539 CNS)
91.1 µM: TGI (CCRF-CEM leukemia)
